We go through one compound from US9073961B2, “Substitution derivatives of N6 -benzyladenosine-5′-monophosphate, methods of preparation thereof, use thereof as medicaments, and therapeutic preparations containing these compounds” (UNIVERZITA PALACKEHO V OLOMOUCI, priority 2010, dated 2015).

Test [1] deals with K-562 (human erythroleukemia). Description: Calcein AM cytotoxicity assay, K-562. It counts as cell-based. Particulars: 72 hours incubation. A digest of the protocol:
(§1)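 Esterase-based viability assay: living cells hydrolyse Calcein AM to fluorescent calcein. Compound exposure lasts 72 h at 37 °C, 5% CO2, 100% humidity, top concentration 166.7 μM. The GI50 is the concentration reducing esterase activity by 50%.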

The subject of test [2] is MCF-7 (breast carcinoma). Description: Calcein AM cytotoxicity assay, MCF7. The settings on record: 72 hours incubation. It counts as cell-based. A digest of the protocol: as §1
For test [3], the system named is Normal human fibroblasts BJ. Description: Calcein AM cytotoxicity assay, BJ. The settings on record: 72 hours incubation. It counts as cell-based. The procedure, abridged: as §1
The subject of test [4] is CEM (T-lymphoblastoid leukemia). Description: Calcein AM cytotoxicity assay, CEM. The format is cell-based. A digest of the protocol: as §1
Test [5] concerns HL-60 (promyelocytic leukemia). Description: Calcein AM cytotoxicity assay, HL60. The format is cell-based, human. Particulars: 72 hours incubation. The procedure, abridged:
as §1

Test [6] has as its system HOS (human osteogenic sarcoma). Briefly: Calcein AM cytotoxicity assay, HOS. The format is cell-based. Particulars: 72 hours incubation. A digest of the protocol: as §1
The test system of test [7] is G-361 (human malignant melanoma). Description: Calcein AM cytotoxicity assay, G-361. The settings on record: 72 hours incubation. The format is cell-based. From the text:
Because toxic compounds negatively influence metabolic processes in cells, many standard cytotoxicity assays are based on measurement of metabolisation rate of various artificial substrates. Resulting product is then quantified e.g. by means of spectrometry. The assays can be easily modified for use in 96-well plates. For evaluation of cytotoxic effect of the novel substituted 9-substituted cytokinin derivatives of this invention, a microtiter assay based on quantification of metabolisation of Calcein AM was used. The assay is widely used in drug screening programs and in chemosensitivity testing. In the living cells, Calcein AM is enzymatically hydrolysed and accumulation of resulting calcein is manifested by green fluorescence.
In the routine screening the following cell lines have been used: CEM (T-lymphoblastoid leukemia), HL-60 (promyelocytic leukemia), K-562 (human erythroleukemia), MCF-7 (breast carcinoma), HOS (human osteogenic sarcoma), and G-361 (human malignant melanoma). Normal human fibroblasts BJ were used as a control for routine screening of the compounds. The cells were kept in Nunc/Corning 80 cm^2 plastic bottles and grown in cell culture medium (DMEM containing 5 g/l glucose, 2 mM glutamine, 100 U/ml penicilline, 100 μg/ml streptomycine, 10% fetal bovine serum and sodium hydrogencarbonate), the compounds were prepared according to the procedure of the present invention.
The cell suspensions were prepared and diluted according to the particular cell type and the expected target cell density (2.500-30.000 cells per well based on cell growth characteristics) and pippetted (80 μl) into 96-well plates. Inoculates were allowed a pre-incubation period of 24 hours at 37° C. and 5% CO2 for stabilisation. Tested compound was added in total volume of 20 μl of water at time zero. Usually, test compound was evaluated at six 3-fold dilutions. In routine testing, the highest concentration tested was 166.7 μM. All drug concentrations were tested in triplicates. Incubations of cells with the test compounds lasted for 72 hours at 37° C., in 5% CO2 atmosphere and 100% humidity. At the end of incubation period Calcein AM in PBS was added into final concentration of 1 μg/ml. After another 1 hour of incubation fluorescence (FD) was measured with the Labsystem FIA Reader Fluoroscan Ascent (Microsystems). Tumor cell survival (TCS) was estimated using the following equation: […]=(FDdrug exposed well/FDcontrol well)×100%. The GI50 value, the drug concentration causing 50% reduction of esterase activity, was calculated from the obtained dose response curves (FIG. 1).
Cytoxicity of novel compounds was tested on panel of cell lines of different histogenetic and species origin (Table 3). […] The effective novel derivatives killed tumour cells in concentrations close to 0.1-50 μM.

As a reminder, the GI50 is the concentration giving 50% growth inhibition. By IC50 is commonly meant the point on the concentration scale where inhibition reaches its midpoint.

As to `O=P(O)(O)OC[C@H]1O[C@@H](n2cnc3c(NCc4ccccc4O)ncnc32)[C@H](O)[C@@H]1O` [Compound 21, 6-(2-hydroxybenzylamino)purine riboside-5′-monophosphate], the 50% growth inhibitory concentration (GI50) in test [1] was 4 µM; in test [2] it was 10.5 µM; in test [3], 43.2 µM; in test [4] (72 hours incubation, Calcein AM) it was 1.3 µM; in test [5] it was 0.48 µM; in test [6], 2.5 µM. For the same compound, the GI50 in test [7] was 13.5 µM. For the same compound, the IC50 in test [4] (FIG. 2 legend) is 1.3 µM.
